Like-named read-outs stand apart in the source and are kept apart here.
How the values were obtained:
mTOR = molecular target: T1, mTOR (Homo sapiens, UniProt P42345); assay: mTOR kinobeads assay (competitive binding in Jurkat cell lysate, immunodetection); settings: kinobeads assay
T1 construct: endogenous in cells; host or cells: Jurkat, clone E6-1 (ATCC TIB-152) cell lysate
Protocol: The compounds of the present invention as described were tested in the mTOR kinobeads assay as described below. […] After the incubation time the beads with captured proteins were separated from the lysate. Bound proteins were then eluted and the presence of mTOR, PI3K delta (PI3 Kd) and DNA-dependent protein kinase (DNA-PK) was detected and quantified using a specific antibody in a dot blot procedure and the Odyssey infrared detection system.
(§1) The kinobeads assay was performed as a competitive binding assay in which test compounds were added directly into a cell lysate. Test compounds (at various concentrations) and the affinity matrix (beads with immobilized phenylmorpholin-chromen ligand) were added to cell lysate aliquots and allowed to bind to the proteins contained in the lysate sample. After the incubation time the beads with captured proteins were separated from the lysate. Bound proteins were then eluted and the presence of kinases was detected and quantified using a multiplexed immunodetection format. Dose response curves for individual kinases were generated and IC50 values calculated.
(§2) 5×DP buffer: 250 mM Tris-HCl pH 7.4, 25% Glycerol, 7.5 mM MgCl2, 750 mM NaCl, 5 mM Na3VO4, filter the 5×-lysis buffer through 0.22 μm filter and store in aliquots at −80° C. The 5×DP buffer is diluted to 1×DP buffer containing 1 mM DTT and 25 mM NaF.
(§3) Stock solutions of test compounds were prepared in DMSO. In a 96 well plate 30 μl solution of diluted test compounds at 5 mM in DMSO were prepared. Starting with this solution a 1:3 dilution series (9 steps) was prepared. For control experiments (no test compound) a buffer containing 2% DMSO was used.
Jurkat cells were homogenized in a Potter S homogenizer in lysis buffer: 50 mM Tris-HCl, 0.8% NP40, 5% glycerol, 150 mM NaCl, 1.5 mM MgCl2, 25 mM NaF, 1 mM sodium vanadate, 1 mM DTT, pH 7.5. […] The material was dounced 10 times using a mechanized POTTER S, transferred to 50 ml falcon tubes, incubated for 30 minutes on ice and spun down for 10 min at 20,000 g at 4° C. (10,000 rpm in Sorvall SLA600, precooled). […] (33.500 rpm in Ti50.2, precooled). The supernatant was transferred again to a fresh 50 ml falcon tube, the protein concentration was determined by a Bradford assay (BioRad) and samples containing 50 mg of protein per aliquot were prepared. The samples were immediately used for experiments or frozen in liquid nitrogen and stored frozen at −80° C.
Jurkat cell lysate (approximately 50 mg protein per plate) was thawed in a water bath at room temperature and then kept on ice. […] The diluted cell lysate was stored on ice.
Plates were sealed and incubated for two hours in a cold room on a Thermoxer with shaking (750 rpm). Afterwards the plate was washed twice with 230 μl washing buffer (1×DP 0.4% NP40). […] The eluate was frozen quickly at −80° C. and stored at −20° C.
The kinases in the eluates were detected and quantified by spotting on Nitrocellulose membranes and using a first antibody directed against the kinase of interest and a fluorescently labeled secondary antibody (anti-mouse or anti-rabbit IRDye™ antibodies from Rockland).
Afterwards the membrane was washed three times for 10 minutes with PBS buffer containing 0.1% Tween 20 at room temperature. […] Afterwards the membrane was washed three times for 10 minutes each with 1×PBS buffer containing 0.1% Tween 20 at room temperature. Then the membrane was rinsed once with PBS buffer to remove residual Tween 20. The membrane was kept in PBS buffer at 4° C. and then scanned with the Odyssey instrument. Fluorescence signals were recorded and analysed according to the instructions of the manufacturer.

PI3K delta (PI3 Kd) = molecular target: T2, PI3K delta (PI3 Kd) (Homo sapiens, UniProt O00329); assay: kinobeads assay, PI3K delta; assay type: binding; settings: kinobeads assay, read-out: Inhibition values (IC50) PI3Kd
T2 construct: endogenous in cells; host or cells: Jurkat, clone E6-1 (ATCC TIB-152) cell lysate
T2 sequence (O00329 whole entry): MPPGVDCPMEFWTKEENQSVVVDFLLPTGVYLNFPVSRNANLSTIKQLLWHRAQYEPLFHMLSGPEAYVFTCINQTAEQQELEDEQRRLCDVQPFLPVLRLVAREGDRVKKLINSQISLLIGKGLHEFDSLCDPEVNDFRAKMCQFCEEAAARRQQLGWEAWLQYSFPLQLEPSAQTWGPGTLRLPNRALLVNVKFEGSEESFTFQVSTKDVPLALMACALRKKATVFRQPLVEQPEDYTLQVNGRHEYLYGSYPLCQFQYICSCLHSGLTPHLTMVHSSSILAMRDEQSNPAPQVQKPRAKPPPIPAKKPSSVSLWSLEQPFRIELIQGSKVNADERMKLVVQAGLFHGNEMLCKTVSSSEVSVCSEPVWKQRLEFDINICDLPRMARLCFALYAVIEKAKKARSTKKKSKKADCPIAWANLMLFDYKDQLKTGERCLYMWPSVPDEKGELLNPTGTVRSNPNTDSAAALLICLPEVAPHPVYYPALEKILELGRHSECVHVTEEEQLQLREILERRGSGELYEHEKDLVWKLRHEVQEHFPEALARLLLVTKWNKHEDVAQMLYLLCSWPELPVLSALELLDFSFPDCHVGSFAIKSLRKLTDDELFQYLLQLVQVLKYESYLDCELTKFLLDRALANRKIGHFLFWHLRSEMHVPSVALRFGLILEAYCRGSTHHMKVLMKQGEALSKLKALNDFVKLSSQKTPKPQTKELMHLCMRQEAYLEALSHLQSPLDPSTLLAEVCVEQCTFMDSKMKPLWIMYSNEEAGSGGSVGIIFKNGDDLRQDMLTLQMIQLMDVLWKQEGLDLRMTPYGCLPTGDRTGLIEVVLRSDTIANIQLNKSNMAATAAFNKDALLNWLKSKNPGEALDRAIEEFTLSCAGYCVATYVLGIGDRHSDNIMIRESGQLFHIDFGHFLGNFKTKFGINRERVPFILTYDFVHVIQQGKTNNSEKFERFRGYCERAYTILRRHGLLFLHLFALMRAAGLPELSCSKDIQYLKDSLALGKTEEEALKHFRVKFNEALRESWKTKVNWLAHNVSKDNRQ
T2 sequence (P27986 whole entry partner): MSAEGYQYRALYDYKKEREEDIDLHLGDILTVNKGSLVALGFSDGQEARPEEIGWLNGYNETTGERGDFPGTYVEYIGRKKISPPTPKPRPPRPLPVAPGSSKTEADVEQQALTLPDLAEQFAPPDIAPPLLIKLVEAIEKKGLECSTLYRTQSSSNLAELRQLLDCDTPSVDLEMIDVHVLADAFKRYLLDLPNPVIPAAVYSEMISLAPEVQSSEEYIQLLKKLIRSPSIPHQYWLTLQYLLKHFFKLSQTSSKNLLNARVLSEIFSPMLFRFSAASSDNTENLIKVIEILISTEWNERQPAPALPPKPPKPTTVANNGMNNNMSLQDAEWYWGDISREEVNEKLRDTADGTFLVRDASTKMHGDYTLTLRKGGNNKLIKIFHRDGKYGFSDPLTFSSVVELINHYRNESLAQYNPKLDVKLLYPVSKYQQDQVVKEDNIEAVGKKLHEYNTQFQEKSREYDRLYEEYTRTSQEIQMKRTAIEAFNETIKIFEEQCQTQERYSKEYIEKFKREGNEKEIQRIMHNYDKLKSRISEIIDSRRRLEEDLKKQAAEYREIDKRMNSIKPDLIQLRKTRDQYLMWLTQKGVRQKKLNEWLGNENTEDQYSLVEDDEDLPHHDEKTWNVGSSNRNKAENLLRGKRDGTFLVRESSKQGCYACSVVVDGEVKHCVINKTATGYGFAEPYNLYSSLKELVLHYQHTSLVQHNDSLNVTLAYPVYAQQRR
Protocol: (§4) The compounds of the present invention as described were tested in the mTOR kinobeads assay as described below. Briefly, test compounds (at various concentrations) and the affinity matrix with the immobilized phenylmorpholin-chromen ligand (8-(4-aminomethyl-phenyl)-2-morpholin-4-yl-chromen-4-one) were added to cell lysate aliquots and allowed to bind to the proteins in the lysate sample. After the incubation time the beads with captured proteins were separated from the lysate. Bound proteins were then eluted and the presence of mTOR, PI3K delta (PI3 Kd) and DNA-dependent protein kinase (DNA-PK) was detected and quantified using a specific antibody in a dot blot procedure and the Odyssey infrared detection system. Kinobeads assays for PI3K (WO-A 2008/015013) and for kinase selectivity profiling (WO 2006/134056) have been previously described.
as §1
(§5) The affinity matrix (beads with immobilized phenylmorpholin-chromen ligand) was washed two times with 15 ml of 1×DP buffer containing 0.2% NP40 (IGEPAL® CA-630, Sigma, #13021) and then resupended in 5.5 ml of 1×DP buffer containing 0.2% NP40 (10% beads slurry).
as §2
as §3, with “used. Compound CZC00018052 served as a positive control (PI-103; Calbiochem catalogue number 528100).” for “used.”
(§6) Jurkat cells (ATCC catalogue number TIB-152 Jurkat, clone E6-1) were grown in 1 liter Spinner flasks (Integra Biosciences, #182101) in suspension in RPMI 1640 medium (Invitrogen, #21875-034) supplemented with 10% Fetal Bovine Serum (Invitrogen) at a density between 0.15×10^6 and 1.2×10^6 cells/ml. Cells were harvested by centrifugation, washed once with 1×PBS buffer (Invitrogen, #14190-094) and cell pellets were frozen in liquid nitrogen and subsequently stored at −80° C.
(§7) Jurkat cells were homogenized in a Potter S homogenizer in lysis buffer: 50 mM Tris-HCl, 0.8% NP40, 5% glycerol, 150 mM NaCl, 1.5 mM MgCl2, 25 mM NaF, 1 mM sodium vanadate, 1 mM DTT, pH 7.5. One complete EDTA-free tablet (protease inhibitor cocktail, Roche Diagnostics, 1873580) per 25 ml buffer was added. The material was dounced 10 times using a mechanized POTTER S, transferred to 50 ml falcon tubes, incubated for 30 minutes on ice and spun down for 10 min at 20,000 g at 4° C. (10,000 rpm in Sorvall SLA600, precooled). The supernatant was transferred to an ultracentrifuge (UZ)-polycarbonate tube (Beckmann, 355654) and spun for 1 hour at 100.000 g at 4° C. (33.500 rpm in Ti50.2, precooled). The supernatant was transferred again to a fresh 50 ml falcon tube, the protein concentration was determined by a Bradford assay (BioRad) and samples containing 50 mg of protein per aliquot were prepared. The samples were immediately used for experiments or frozen in liquid nitrogen and stored frozen at −80° C. […]

[1] = molecular target: T3, DNA-dependent protein kinase (DNA-PK) (Homo sapiens, UniProt P78527); assay: kinobeads assay, DNA-PK; assay type: binding; settings: kinobeads assay
T3 construct: endogenous in cells; host or cells: Jurkat, clone E6-1 (ATCC TIB-152) cell lysate
Protocol: as §4, §1, §5, §2
as §3, with “used. Compound CZC00018052 served as a positive control (PI-103; Calbiochem catalogue number 528100).” for “used.”
as §6, §7

PI3 Kgamma (PI3 Kg) = molecular target: T4, PI3 Kgamma (PI3 Kg) (Homo sapiens, UniProt P48736); assay: kinobeads assay, PI3Kgamma; assay type: binding; settings: kinobeads assay, Table 6; read-out: Inhibition values (IC50) PI3Kg
T4 construct: endogenous in cells; host or cells: cell lysate
T4 sequence (P48736 whole entry): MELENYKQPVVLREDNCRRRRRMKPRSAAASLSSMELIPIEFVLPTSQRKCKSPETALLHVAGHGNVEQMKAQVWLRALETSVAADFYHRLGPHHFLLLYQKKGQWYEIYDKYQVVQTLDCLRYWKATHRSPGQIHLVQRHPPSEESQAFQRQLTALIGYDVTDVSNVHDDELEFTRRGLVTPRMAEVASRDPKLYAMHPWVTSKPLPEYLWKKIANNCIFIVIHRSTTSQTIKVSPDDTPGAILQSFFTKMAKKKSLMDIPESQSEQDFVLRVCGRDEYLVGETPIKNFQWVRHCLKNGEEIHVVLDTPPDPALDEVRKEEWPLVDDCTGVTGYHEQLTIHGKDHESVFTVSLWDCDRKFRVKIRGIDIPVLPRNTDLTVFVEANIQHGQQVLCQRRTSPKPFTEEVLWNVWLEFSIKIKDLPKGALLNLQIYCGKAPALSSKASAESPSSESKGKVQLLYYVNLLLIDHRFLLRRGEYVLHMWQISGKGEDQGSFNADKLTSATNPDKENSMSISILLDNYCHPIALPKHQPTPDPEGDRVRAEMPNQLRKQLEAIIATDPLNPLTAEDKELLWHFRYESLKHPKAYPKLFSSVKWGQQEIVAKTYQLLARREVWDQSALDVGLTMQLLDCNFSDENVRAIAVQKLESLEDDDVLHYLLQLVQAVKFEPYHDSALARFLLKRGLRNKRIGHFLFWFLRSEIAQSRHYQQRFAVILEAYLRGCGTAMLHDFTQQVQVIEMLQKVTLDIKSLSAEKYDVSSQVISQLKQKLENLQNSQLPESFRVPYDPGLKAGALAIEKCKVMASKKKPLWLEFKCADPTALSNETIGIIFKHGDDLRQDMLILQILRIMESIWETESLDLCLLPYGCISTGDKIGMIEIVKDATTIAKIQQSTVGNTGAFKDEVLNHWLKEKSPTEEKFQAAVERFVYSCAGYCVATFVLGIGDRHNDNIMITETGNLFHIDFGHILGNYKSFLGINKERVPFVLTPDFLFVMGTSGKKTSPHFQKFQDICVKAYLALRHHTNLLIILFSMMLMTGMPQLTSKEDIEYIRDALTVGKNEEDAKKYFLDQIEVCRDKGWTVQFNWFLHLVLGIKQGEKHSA
Protocol: as §1
(§8) The effect of the compounds on the kinases PI3Kalpha (PI3Ka), PI3 Kbeta (PI3 Kb) and PI3 Kgamma (PI3 Kg) were tested in the kinobeads assay as described (WO-A 2009/098021).

PI3Kalpha (PI3Ka) = molecular target: T5, PI3Kalpha (PI3Ka) (Homo sapiens, UniProt P42336); assay: kinobeads assay, PI3Kalpha; assay type: binding; settings: kinobeads assay, Table 6
T5 construct: endogenous in cells; host or cells: cell lysate
T5 sequence (P42336 whole entry): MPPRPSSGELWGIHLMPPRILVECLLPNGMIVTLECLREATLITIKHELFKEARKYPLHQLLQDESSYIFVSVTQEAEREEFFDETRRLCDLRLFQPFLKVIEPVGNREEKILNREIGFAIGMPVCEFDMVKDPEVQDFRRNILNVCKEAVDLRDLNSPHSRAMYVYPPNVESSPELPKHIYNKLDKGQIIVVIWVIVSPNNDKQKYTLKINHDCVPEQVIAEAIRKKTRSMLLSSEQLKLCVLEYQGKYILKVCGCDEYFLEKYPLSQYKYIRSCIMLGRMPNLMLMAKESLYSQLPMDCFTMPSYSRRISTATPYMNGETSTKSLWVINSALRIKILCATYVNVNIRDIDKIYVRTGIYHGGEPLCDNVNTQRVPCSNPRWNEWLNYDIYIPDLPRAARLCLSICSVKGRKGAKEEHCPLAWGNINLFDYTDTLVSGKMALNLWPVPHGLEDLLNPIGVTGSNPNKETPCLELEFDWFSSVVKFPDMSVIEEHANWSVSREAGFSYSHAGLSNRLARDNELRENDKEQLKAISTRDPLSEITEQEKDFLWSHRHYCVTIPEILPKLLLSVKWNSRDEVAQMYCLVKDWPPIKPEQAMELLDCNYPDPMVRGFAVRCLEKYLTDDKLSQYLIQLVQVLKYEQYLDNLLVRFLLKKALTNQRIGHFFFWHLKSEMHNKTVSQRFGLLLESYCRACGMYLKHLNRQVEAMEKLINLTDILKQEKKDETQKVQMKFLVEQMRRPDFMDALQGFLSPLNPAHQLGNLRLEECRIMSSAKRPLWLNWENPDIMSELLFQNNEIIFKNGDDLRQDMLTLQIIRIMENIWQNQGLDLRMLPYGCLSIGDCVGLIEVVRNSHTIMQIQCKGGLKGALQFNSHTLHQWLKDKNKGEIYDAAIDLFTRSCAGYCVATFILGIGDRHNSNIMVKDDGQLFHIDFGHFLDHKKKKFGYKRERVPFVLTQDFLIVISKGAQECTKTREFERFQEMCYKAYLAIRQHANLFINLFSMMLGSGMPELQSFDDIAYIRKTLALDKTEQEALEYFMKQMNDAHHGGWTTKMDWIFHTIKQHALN
T5 sequence (P27986 whole entry partner): as the sequence (P27986 whole entry partner) above
Protocol: as §1, §8

[2] = Table 4, read-out: Inhibition values (IC50) mTor
[3] = Table 6, read-out: Inhibition values (IC50) mTOR
[4] = Table 4, read-out: Inhibition values (IC50) DNA-PK
[5] = Table 6, read-out: Inhibition values (IC50) DNAPK

SMILES	IC50 (mTOR; [2])	IC50 (mTOR; [3])	IC50 (PI3K delta (PI3 Kd); Table 4)	IC50 (PI3K delta (PI3 Kd); Table 6)	IC50 [1, 4]	IC50 [1, 5]	IC50 (PI3 Kgamma (PI3 Kg))	Inhibition values (IC50) PI3Ka (PI3Kalpha (PI3Ka))
C[C@@H]1COCCN1c1nc(-c2ccc(NC(=O)NC3CC3)cc2)nc2c1CNC2 [Example 9, (R)-1-cyclopropyl-3-(4-(4-(3-methylmorpholino)-6,7-dihydro-5H-pyrrolo[3,4-d]pyrimidin-2-yl)phenyl)urea]	< 0.1 µM	< 0.1 µM	> 10 µM	> 10 µM	> 10 µM	> 10 µM	–	–
C[C@H]1COCCN1c1nc(-c2ccc(NC(N)=O)cc2)nc2c1CN(C=O)C2 [Example 6, (S)-1-(4-(6-formyl-4-(3-methylmorpholino)-6,7-dihydro-5H-pyrrolo[3,4-d]pyrimidin-2-yl)phenyl)urea]	0.1 to 1 µM	0.1 to 1 µM	1 to 10 µM	1 to 10 µM	> 10 µM	> 10 µM	–	–
CNC(=O)Nc1ccc(-c2nc3c(c(N4CCOC[C@@H]4C)n2)CNC3)cc1 [Example 4, (S)-1-methyl-3-(4-(4-(3-methylmorpholino)-6,7-dihydro-5H-pyrrolo[3,4-d]pyrimidin-2-yl)phenyl)urea]	< 0.1 µM	< 0.1 µM	1 to 10 µM	1 to 10 µM	> 10 µM	> 10 µM	–	–
CCNC(=O)Nc1ccc(-c2nc3c(c(N4CCOC[C@@H]4C)n2)CCN(Cc2ccc(F)cc2)C3)cc1 [Example 31, (S)-1-ethyl-3-(4-(7-(4-fluorobenzyl)-4-(3-methylmorpholino)-5,6,7,8-tetrahydropyrido[3,4-d]pyrimidin-2-yl)phenyl)urea]	0.1 to 1 µM	1 to 10 µM	> 10 µM	> 10 µM	> 10 µM	> 10 µM	–	–
CNC(=O)Nc1ccc(-c2nc3c(c(N4CCOC[C@@H]4C)n2)CNCC3)cc1 [Example 10, (S)-1-methyl-3-(4-(4-(3-methylmorpholino)-5,6,7,8-tetrahydropyrido[4,3-d]pyrimidin-2-yl)phenyl)urea]	0.1 to 1 µM	0.1 to 1 µM	> 10 µM	> 10 µM	> 10 µM	> 10 µM	–	–
CCNC(=O)Nc1ccc(-c2nc3c(c(N4CCOC[C@@H]4C)n2)CNC3)cc1 [Example 7, (S)-1-ethyl-3-(4-(4-(3-methylmorpholino)-6,7-dihydro-5H-pyrrolo[3,4-d]pyrimidin-2-yl)phenyl)urea]	< 0.1 µM	< 0.1 µM	> 10 µM	> 10 µM	> 10 µM	> 10 µM	–	–
CCNC(=O)Nc1ccc(-c2nc3c(c(N4CCOCC4)n2)CNC3)cc1 [Example 14, 1-ethyl-3-(4-(4-morpholino-6,7-dihydro-5H-pyrrolo[3,4-d]pyrimidin-2-yl)phenyl)urea]	–	–	1 to 10 µM	1 to 10 µM	> 10 µM	> 10 µM	–	–
C[C@H]1COCCN1c1nc(-c2ccc(NC(=O)NCCN(C)C)cc2)nc2c1CN(C)C2 [Example 54, (S)-1-(2-(dimethylamino)ethyl)-3-(4-(6-methyl-4-(3-methylmorpholino)-6,7-dihydro-5H-pyrrolo[3,4-d]pyrimidin-2-yl)phenyl)urea]	0.1 to 1 µM	0.1 to 1 µM	–	–	> 10 µM	> 10 µM	1 to 10 µM	–
C[C@H]1COCCN1c1nc(-c2ccc(NC(=O)NC3CC3)cc2)nc2c1CN(CC1CCN(C(=O)OC(C)(C)C)CC1)C2 [Example 128, (S)-tert-butyl 4-((2-(4-(3-cyclopropylureido)phenyl)-4-(3-methylmorpholino)-5H-pyrrolo[3,4-d]pyrimidin-6(7H)-yl)methyl)piperidine-1-carboxylate]	–	0.1 to 1 µM	–	> 10 µM	–	–	> 10 µM	D (D >10 μM)
COCCCNC(=O)Nc1ccc(-c2nc3c(c(N4CCOC[C@@H]4C)n2)CN(C)C3)cc1 [Example 53, (S)-1-(3-methoxypropyl)-3-(4-(6-methyl-4-(3-methylmorpholino)-6,7-dihydro-5H-pyrrolo[3,4-d]pyrimidin-2-yl)phenyl)urea]	0.1 to 1 µM	0.1 to 1 µM	–	–	> 10 µM	> 10 µM	–	–
C[C@H]1COCCN1c1nc(-c2ccc(NC(=O)NC3CC3)cc2)nc2c1CNC2 [Example 3, (S)-1-cyclopropyl-3-(4-(4-(3-methylmorpholino)-6,7-dihydro-5H-pyrrolo[3,4-d]pyrimidin-2-yl)phenyl)urea]	< 0.1 µM	< 0.1 µM	> 10 µM	> 10 µM	> 10 µM	> 10 µM	–	–
C[C@H]1COCCN1c1nc(-c2ccc(NC(=O)NCCCO)cc2)nc2c1CN(C)C2 [Example 51, (S)-1-(3-hydroxypropyl)-3-(4-(6-methyl-4-(3-methylmorpholino)-6,7-dihydro-5H-pyrrolo[3,4-d]pyrimidin-2-yl)phenyl)urea]	< 0.1 µM	< 0.1 µM	–	–	> 10 µM	> 10 µM	–	–
